Tested on: 521955-158-R2-J5-PDC complex spheroid viability
Assay: Anticancer human tumor 521955-158-R2-J5-PDC patient-derived pancreatic carcinoma cell line growth inhibition [GQUAD]
Conditions: for IC50: curve of first compound; for viability, T/C: stronger effect = lower value
Summary of the method: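 Viability of tumor cells grown as complex spheroids with endothelial and stromal cells, exposed to drug combinations. Top concentration at or near clinical Cmax (else 10 microM), diluted in half-log increments.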

[1] = second compound 0.0316 µM, first compound 0.0316 µM
[2] = second compound 0.0316 µM, first compound 0.1 µM
[3] = second compound 0.0316 µM, first compound 0.316 µM
[4] = second compound 0.0316 µM, first compound 1 µM
[5] = second compound 0.0316 µM, first compound 3.16 µM
[6] = second compound 0.0316 µM, first compound 10 µM
[7] = second compound 0.1 µM, first compound 0.0316 µM
[8] = second compound 0.1 µM, first compound 0.1 µM
[9] = second compound 0.1 µM, first compound 0.316 µM
[10] = second compound 0.1 µM, first compound 1 µM
[11] = second compound 0.1 µM, first compound 3.16 µM
[12] = second compound 0.1 µM, first compound 10 µM
[13] = second compound 0.316 µM, first compound 0.0316 µM
[14] = second compound 0.316 µM, first compound 0.1 µM
[15] = second compound 0.316 µM, first compound 0.316 µM
[16] = second compound 0.316 µM, first compound 1 µM
[17] = second compound 0.316 µM, first compound 3.16 µM
[18] = second compound 0.316 µM, first compound 10 µM
[19] = second compound 1 µM, first compound 0.0316 µM
[20] = second compound 1 µM, first compound 0.1 µM
[21] = second compound 1 µM, first compound 0.316 µM
[22] = second compound 1 µM, first compound 1 µM
[23] = second compound 1 µM, first compound 3.16 µM
[24] = second compound 1 µM, first compound 10 µM
[25] = second compound 3.16 µM, first compound 0.0316 µM
[26] = second compound 3.16 µM, first compound 0.1 µM
[27] = second compound 3.16 µM, first compound 0.316 µM
[28] = second compound 3.16 µM, first compound 1 µM
[29] = second compound 3.16 µM, first compound 3.16 µM
[30] = second compound 3.16 µM, first compound 10 µM
[31] = second compound 10 µM, first compound 0.0316 µM
[32] = second compound 10 µM, first compound 0.1 µM
[33] = second compound 10 µM, first compound 0.316 µM
[34] = second compound 10 µM, first compound 1 µM
[35] = second compound 10 µM, first compound 3.16 µM
[36] = second compound 10 µM, first compound 10 µM
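Further: spheroids exposed to agents for one week before reading.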
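Wherever viability, T/C is given: 100% = DMSO vehicle control viability.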

For `CC(C)n1c(=O)n(C)c2cnc3cc(F)c(-c4ccc(OCCCN5CCCCC5)nc4)cc3c21` + Cc1[nH]c2ccc(F)cc2c1-c1nc2c3cccnc3c3ncccc3c2[nH]1, the IC50 (second compound 0.0316 µM) was > 10000 nM, the IC50 (second compound 0.1 µM) was > 10000 nM and the IC50 (second compound 0.316 µM) was > 10000 nM. The IC50 (second compound 1 µM) was > 10000 nM, the IC50 (second compound 3.16 µM) was > 10000 nM and the IC50 (second compound 10 µM) was > 10000 nM. For the same molecule, the viability, T/C [1] was 116%, the viability, T/C [2] was 90.8% and the viability, T/C [3] was 109%. The viability, T/C [4] was 84.5%, the viability, T/C [5] was 101% and the viability, T/C [6] was 94.4%. The viability, T/C [7] was 94.8%, the viability, T/C [8] was 114% and the viability, T/C [9] was 97.7%. For the same molecule, the viability, T/C [10] was 105%, the viability, T/C [11] was 115% and the viability, T/C [12] was 84.8%. For the same molecule, the viability, T/C [13] was 105%, the viability, T/C [14] was 108% and the viability, T/C [15] was 116%. For the same molecule, the viability, T/C [16] was 104%, the viability, T/C [17] was 90.8% and the viability, T/C [18] was 83.7%. The viability, T/C [19] was 101%, the viability, T/C [20] was 113% and the viability, T/C [21] was 104%. It also gave a viability, T/C [22] of 94.9%, a viability, T/C [23] of 108% and a viability, T/C [24] of 91.1%. It also gave a viability, T/C [25] of 107%, a viability, T/C [26] of 110% and a viability, T/C [27] of 109%. For the same molecule, the viability, T/C [28] was 102%, the viability, T/C [29] was 115% and the viability, T/C [30] was 94.2%. For the same molecule, the viability, T/C [31] was 114%, the viability, T/C [32] was 92.8% and the viability, T/C [33] was 115%. The viability, T/C [34] was 110%, the viability, T/C [35] was 108% and the viability, T/C [36] was 79.1%.
In the case of `CC1COCCN1c1cc(-c2ccnn2C)c2ccnc(-c3ccn[nH]3)c2n1` (centres undefined) + Cc1[nH]c2ccc(F)cc2c1-c1nc2c3cccnc3c3ncccc3c2[nH]1, the IC50 (second compound 0.0316 µM) is reported as 55.1 nM, the IC50 (second compound 0.1 µM) is reported as 52.6 nM and the IC50 (second compound 0.316 µM) is reported as 56.8 nM. For the same molecule, the IC50 (second compound 1 µM) was 59 nM, the IC50 (second compound 3.16 µM) was 58.4 nM and the IC50 (second compound 10 µM) was 53.5 nM. The viability, T/C [1] was 81%, the viability, T/C [2] was 16.8% and the viability, T/C [3] was 10.3%. For the same molecule, the viability, T/C [4] was 13.1%, the viability, T/C [5] was 18.4% and the viability, T/C [6] was 18.2%. The viability, T/C [7] was 73.7%, the viability, T/C [8] was 20.6% and the viability, T/C [9] was 8.98%. The viability, T/C [10] was 12.4%, the viability, T/C [11] was 18.1% and the viability, T/C [12] was 18.8%. The viability, T/C [13] was 84.4%, the viability, T/C [14] was 16.7% and the viability, T/C [15] was 13.3%. The viability, T/C [16] was 12.7%, the viability, T/C [17] was 18.5% and the viability, T/C [18] was 19.8%. It also gave a viability, T/C [19] of 90.1%, a viability, T/C [20] of 16.1% and a viability, T/C [21] of 9.88%. It also gave a viability, T/C [22] of 11.1%, a viability, T/C [23] of 19.8% and a viability, T/C [24] of 21.6%. For the same molecule, the viability, T/C [25] was 88.1%, the viability, T/C [26] was 15.8% and the viability, T/C [27] was 9.58%. It also gave a viability, T/C [28] of 11.2%, a viability, T/C [29] of 21.6% and a viability, T/C [30] of 25%. It also gave a viability, T/C [31] of 77.7%, a viability, T/C [32] of 16% and a viability, T/C [33] of 10.9%. The viability, T/C [34] was 15.9%, the viability, T/C [35] was 19.3% and the viability, T/C [36] was 24%.

Source: PubChem BioAssay AID2060495 (Molecular Pharmacology Branch, DTP, NCI, 2025)
